Results: patent publication US12606528B2, “Methods and materials for inhibiting NF-kB activity” (University of Pittsburgh - Of the Commonwealth System of …, priority 2019, dated 2026)
Where two headings read alike, the source gives them in different places.

Assays:
NF-κB = NF-κB assay: THP1-NF-κB-LUC cells, LPS-stimulated secreted luciferase; assay type: cell-based; conditions: THP1-NF-κB-LUC cells, read-out: IC50 (NF-κB assay)
Procedure, shortened: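 THP1-NF-κB-LUC cells (25k/well) were pretreated with compounds for 2 h, then stimulated with LPS (10 ng/mL) for 18 h. Secreted luciferase was measured and normalized to vehicle, and IC50 was fitted from the concentration series.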

TNF release = experiment: TNF assay: TNF release from LPS-stimulated human PBMCs (TNF ELISA); assay type: cell-based; conditions: PBMC, read-out: IC50 (TNF assay)
Procedure, shortened: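 Human PBMCs at 10k/well pretreated with compound dilutions 2 h, then stimulated with LPS (10 ng/mL) for 18 h. TNF in supernatants quantified by ELISA; IC50 for inhibition of TNF release fitted from concentration–response.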

[1] = LPS-stimulated human PBMCs, TNF ELISA
[2] = compounds 2 hours before LPS (10 ng/mL) for 18 hours, secreted luciferase
[3] = human PBMCs, compounds 2 hours before LPS (10 ng/ml) for 18 hours, supernatant TNF ELISA

| Compound | IC50 (NF-κB; LPS-stimulated) | IC50 (TNF release; [1]) | IC50 (NF-κB; [2]) | IC50 (TNF release; [3]) |
| --- | --- | --- | --- | --- |
| N#Cc1cnc2nc(-c3ccc(F)cc3)c(-c3ccc(F)cc3)nc2c1 [BC19495] | 0.1 to 1 µM | > 10 µM |  |  |
| O=C(NCCN1CCOCC1)c1ccc2nc(-c3ccc(Cl)cc3)c(-c3ccc(Cl)cc3)nc2c1 [BC19497] | < 0.1 µM | > 10 µM |  |  |
| CN1CCN(C(=O)c2ccc3nc(-c4cccc(N(C)C)c4)c(-c4cccc(N(C)C)c4)nc3c2)CC1 [BC19498] | > 10 µM | > 10 µM |  |  |
| CN(C)c1cccc(-c2nc3ccc(C(=O)O)cc3nc2-c2cccc(N(C)C)c2)c1 [BC19500] | > 10 µM | > 10 µM |  |  |
| CN(C)c1cccc(-c2nc3ccc(C(=O)NCCN4CCOCC4)cc3nc2-c2cccc(N(C)C)c2)c1 [BC19501] | > 10 µM | > 10 µM |  |  |
| O=S(=O)(NCCN1CCOCC1)c1ccc2nc(-c3ccc(F)cc3)c(-c3ccc(F)cc3)nc2c1 [BC19504] | 0.1 to 1 µM | > 10 µM |  |  |
| N#Cc1ccc2nc(-c3ccc(F)cc3)c(-c3ccc(F)cc3)nc2n1 [BC19512] | 0.1 to 1 µM | > 10 µM |  |  |
| O=c1[nH]ccc2cc(S(=O)(=O)c3ccc(Cl)cc3)ccc12 [BC19516] |  |  | > 10 µM | > 10 µM |
| Cc1ccc(S(=O)(=O)c2ccc3c(=O)[nH]ccc3c2)cc1 [BC19518] |  |  | > 10 µM | > 10 µM |
| O=c1[nH]ccc2cc(S(=O)(=O)c3cccc(F)c3)ccc12 [BC19520] |  |  | > 10 µM | > 10 µM |
| CS(=O)(=O)c1[nH]c(-c2ccccc2)nc1S(=O)(=O)c1ccc(F)cc1 [BC19522] | 1 to 10 µM | > 10 µM |  |  |
| CC(C)[S+]([O-])c1[nH]c(-c2ccccc2)nc1S(=O)(=O)c1ccc(F)cc1 (centres unmarked) [BC19523] | 1 to 10 µM | > 10 µM |  |  |
| O=S(=O)(CC1CC1)c1sc(-c2ccccc2)nc1S(=O)(=O)c1ccc(Cl)cc1 [BC19525] | 1 to 10 µM | 1 to 10 µM |  |  |
| COCC[S+]([O-])c1sc(-c2ccccc2)nc1S(=O)(=O)c1ccc(Cl)cc1 (centres unmarked) [BC19526] | 1 to 10 µM | 1 to 10 µM |  |  |
| COCCS(=O)(=O)c1sc(-c2cccc(F)c2)nc1S(=O)(=O)c1ccc(Cl)cc1 [BC19527] | 1 to 10 µM | 1 to 10 µM |  |  |
| O=S(=O)(CC1CC1)c1sc(-c2ccc(Cl)cc2)nc1S(=O)(=O)c1ccc(Cl)cc1 [BC19530] | 1 to 10 µM | 1 to 10 µM |  |  |
| CCC[S+]([O-])c1sc(-c2ccc(Cl)cc2)nc1S(=O)(=O)c1ccc(Cl)cc1 (centres unmarked) [BC19533] | 1 to 10 µM | 1 to 10 µM |  |  |
| CS(=O)(=O)c1sc(-c2ccc(Cl)cc2)nc1S(=O)(=O)c1ccc(F)cc1 [BC19534] | 1 to 10 µM | 1 to 10 µM |  |  |
| CCCS(=O)(=O)c1sc(-c2ccc(Cl)cc2)nc1S(=O)(=O)c1ccc(F)cc1 [BC19536] | 1 to 10 µM | 0.1 to 1 µM |  |  |
| CC(C)[S+]([O-])c1sc(-c2ccc(Cl)cc2)nc1S(=O)(=O)c1ccc(F)cc1 (centres unmarked) [BC19537] | > 10 µM | > 10 µM |  |  |
| CC(C)S(=O)(=O)c1sc(-c2ccc(Cl)cc2)nc1S(=O)(=O)c1ccc(F)cc1 [BC19538] | 1 to 10 µM | 1 to 10 µM |  |  |
| O=S(=O)(CC1CC1)c1sc(-c2ccc(Cl)cc2)nc1S(=O)(=O)c1ccc(F)cc1 [BC19539] | 1 to 10 µM | 1 to 10 µM |  |  |
| COCC[S+]([O-])c1sc(-c2ccc(Cl)cc2)nc1S(=O)(=O)c1ccc(F)cc1 (centres unmarked) [BC19540] | 1 to 10 µM | 1 to 10 µM |  |  |
| COCCS(=O)(=O)c1sc(-c2ccc(Cl)cc2)nc1S(=O)(=O)c1ccc(F)cc1 [BC19541] | 1 to 10 µM | 1 to 10 µM |  |  |
| CCS(=O)(=O)c1cc2c(c(S(=O)(=O)Nc3ccc(C)c(Cl)c3)c1)OCC(=O)N2 [BC19544] |  |  | < 0.1 µM | > 10 µM |

Next, values leading:

| IC50 (NF-κB; LPS-stimulated) | IC50 (TNF release; [1]) | IC50 (NF-κB; [2]) | IC50 (TNF release; [3]) | Compound |
| --- | --- | --- | --- | --- |
| 0.1 to 1 µM | > 10 µM |  |  | COCC(=O)N1CCC(C(=O)Cc2ccc3nc(-c4ccc(F)cc4)c(-c4ccc(F)cc4)nc3n2)CC1 [BC19494] |
| < 0.1 µM | > 10 µM |  |  | Cn1cnnc1-c1cnc2nc(-c3ccc(F)cc3)c(-c3ccc(F)cc3)nc2c1 [BC19496] |
| 1 to 10 µM | > 10 µM |  |  | C#CCNC(=O)c1ccc2nc(-c3cccc(N(C)C)c3)c(-c3cccc(N(C)C)c3)nc2c1 [BC19499] |
| > 10 µM | > 10 µM |  |  | CN(C)c1cccc(-c2nc3ccc(C(=O)NCCO)cc3nc2-c2cccc(N(C)C)c2)c1 [BC19502] |
| 1 to 10 µM | 1 to 10 µM |  |  | O=C(NCCN1CCOCC1)c1ccc2nc(-c3ccc(OC(F)(F)F)cc3)c(-c3ccc(OC(F)(F)F)cc3)nc2c1 [BC19503] |
| 0.1 to 1 µM | > 10 µM |  |  | O=S(=O)(NC1CC1)c1ccc2nc(-c3ccc(F)cc3)c(-c3ccc(F)cc3)nc2c1 [BC19505] |
| 0.1 to 1 µM | > 10 µM |  |  | O=S(=O)(NCC1CC1)c1ccc2nc(-c3ccc(F)cc3)c(-c3ccc(F)cc3)nc2c1 [BC19506] |
| < 0.1 µM | > 10 µM |  |  | COCCNS(=O)(=O)c1ccc2nc(-c3ccc(F)cc3)c(-c3ccc(F)cc3)nc2c1 [BC19507] |
| 0.1 to 1 µM | 1 to 10 µM |  |  | O=S(=O)(CCCCN1CCOCC1)c1ccc2nc(-c3ccc(F)cc3)c(-c3ccc(F)cc3)nc2c1 [BC19508] |
| < 0.1 µM | > 10 µM |  |  | O=S(=O)(NCCCO)c1ccc2nc(-c3ccc(F)cc3)c(-c3ccc(F)cc3)nc2c1 [BC19509] |
| 0.1 to 1 µM | > 10 µM |  |  | CN1CCN(c2ccc3nc(-c4ccc(F)cc4)c(-c4ccc(F)cc4)nc3c2)CC1 [BC19510] |
| < 0.1 µM | > 10 µM |  |  | CC(=O)N1CCN(c2ccc3nc(-c4ccc(F)cc4)c(-c4ccc(F)cc4)nc3c2)CC1 [BC19511] |
| < 0.1 µM | > 10 µM |  |  | O=C(c1ccc2nc(-c3ccc(F)cc3)c(-c3ccc(F)cc3)nc2c1)N1CCN(CCO)CC1 [BC19513] |
| 0.1 to 1 µM | 1 to 10 µM |  |  | O=C(c1ccc2nc(-c3ccc(F)cc3)c(-c3ccc(F)cc3)nc2c1)N1CCN(CCOCCO)CC1 [BC19514] |
|  |  | > 10 µM | > 10 µM | O=c1[nH]ccc2cc([S+]([O-])c3ccc(Cl)cc3)ccc12 (centres unmarked) [BC19515] |
|  |  | > 10 µM | > 10 µM | Cc1ccc([S+]([O-])c2ccc3c(=O)[nH]ccc3c2)cc1 (centres unmarked) [BC19517] |
|  |  | > 10 µM | > 10 µM | O=c1[nH]ccc2cc([S+]([O-])c3cccc(F)c3)ccc12 (centres unmarked) [BC19519] |
| < 0.1 µM | 0.1 to 1 µM |  |  | CCCS(=O)(=O)c1oc(-c2ccccc2)nc1S(=O)(=O)c1ccc(Cl)cc1 [BC19521] |
| > 10 µM | > 10 µM |  |  | COCC[S+]([O-])c1[nH]c(-c2ccccc2)nc1S(=O)(=O)c1ccc(F)cc1 (centres unmarked) [BC19524] |
| 1 to 10 µM | 0.1 to 1 µM |  |  | C[S+]([O-])c1sc(-c2ccc(Cl)cc2)nc1S(=O)(=O)c1ccc(Cl)cc1 (centres unmarked) [BC19528] |
| > 10 µM | 1 to 10 µM |  |  | CC(C)CS(=O)(=O)c1sc(-c2ccc(Cl)cc2)nc1S(=O)(=O)c1ccc(Cl)cc1 [BC19529] |
| 1 to 10 µM | 0.1 to 1 µM |  |  | CCC[S+]([O-])c1sc(-c2cccc(F)c2)nc1S(=O)(=O)c1ccc(Cl)cc1 (centres unmarked) [BC19531] |
| > 10 µM | > 10 µM |  |  | O=S(=O)(c1ccc(Cl)cc1)c1nc(-c2cccc(F)c2)sc1[S+]([O-])C1CCCCC1 (centres unmarked) [BC19532] |
| 1 to 10 µM | 1 to 10 µM |  |  | CCC[S+]([O-])c1sc(-c2ccc(Cl)cc2)nc1S(=O)(=O)c1ccc(F)cc1 (centres unmarked) [BC19535] |
| > 10 µM | > 10 µM |  |  | O=S1(=O)CCn2c(-c3ccccc3)nc(S(=O)(=O)c3ccc(F)cc3)c21 [BC19542] |
| 0.1 to 1 µM | < 0.1 µM |  |  | Cc1ccc(S(=O)(=O)c2nc(S(=O)(=O)C(C)C)sc2S(=O)(=O)C(C)C)cc1 [BC19543] |
|  |  | < 0.1 µM | > 10 µM | CCS(=O)(=O)c1cc2c(c(S(=O)(=O)Nc3ccc(F)cc3F)c1)OCC(=O)N2 [BC19545] |
|  |  | < 0.1 µM | > 10 µM | CCS(=O)(=O)c1cc2c(c(S(=O)(=O)Nc3ccc(C)cc3)c1)OCC(=O)N2 [BC19546] |
|  |  | 0.1 to 1 µM | > 10 µM | CCS(=O)(=O)c1cc2c(c(S(=O)(=O)Nc3ccc(OC)c(Cl)c3)c1)OCC(=O)N2 [BC19547] |
|  |  | < 0.1 µM | > 10 µM | CCS(=O)(=O)c1cc2c(c(S(=O)(=O)Nc3ccc(C#N)cc3)c1)OCC(=O)N2 [BC19548] |
